Assay results taken from patent EP2327766B1, “Nitrilases” (BASF Enzymes LLC, priority 2001, dated 2003).

system: nitrilase SEQ ID NOS:385, 386 (nitrilase I), obtained from an environmental sample; assay: High throughput nitrilase activity assay, turnover frequency on mandelonitrile derivatives; format: biochemical, Unknown (obtained from an environmental sample); details: 25 mM substrate, 0.12 mg/mL enzyme, 10% MeOH (v/v) 0.1 M phosphate buffer, 37°C, pH 8; 5 min timepoint
Description: The nitrilase library was screened for activity and enantioselectivity in the hydrolysis of mandelonitrile (3a, Ar = phenyl) to mandelic acid. […] Under standard conditions using 25 mM 3a and 0.12 mg/mL enzyme in 10% MeOH (v/v) 0.1 M phosphate buffer at 37°C and pH 8, (R)-mandelic acid was formed quantitatively within 10 min and with 98% ee. To confirm synthetic utility, the reaction was performed using 1.0 g 3a (50 mM) and 9 mg nitrilase (0.06 mg/mL nitrilase I); after 3 h (R)-mandelic acid was isolated in high yield (0.93 g, 86%) and again with 98% ee. [drawing 19] Table 13. SEQ ID NOS:385, 386-catalyzed production of mandelic acid derivatives and analogues 4a
Activity assays were conducted using 25 mM (-3 mg/mL) substrate, 0.1 mg/mL nitrilase in 0.25 mL of assay solution. Assay solutions consisted of 0-10% (v/v) MeOH in 0.1 M sodium phosphate buffer solution at pH 7 to 9 and temperatures 37°C or 22°C. Specific activities were measured at 5 min transformation time point, unless otherwise noted, and are expressed in units µmol mg^-1 min^-1. Enantiomeric excess and conversion rates were determined by high throughput HPLC analysis comparing enzyme product concentration to standard curves of racemic acid products. Analytical conditions for the products are tabulated below.

Row | Compound | TOF (turnover frequency)
1 | N#CC(O)c1ccccc1Br (stereo not shown) [2-bromomandelonitrile] | 5.6 mol product/mol catalyst/sec
2 | N#CC(O)c1ccccc1Cl (stereo not shown) [2-chloro mandelonitrile] | 1.7 mol product/mol catalyst/sec
3 | Cc1ccccc1C(O)C#N (stereo not shown) [2-methylmandelonitrile] | 5.1 mol product/mol catalyst/sec
4 | N#CC(O)c1cccc(Br)c1 (stereo not shown) [3-bromomandelonitrile] | 1.7 mol product/mol catalyst/sec
5 | N#CC(O)c1cccc(Cl)c1 (stereo not shown) [3-chloromandelonitrile] | 3.4 mol product/mol catalyst/sec
6 | N#CC(O)c1cccnc1 (stereo not shown) [3-pyridyl cyanohydrin] | 18.6 mol product/mol catalyst/sec
7 | N#CC(O)c1ccsc1 (stereo not shown) [3-thienyl cyanohydrin] | 16.8 mol product/mol catalyst/sec
8 | N#CC(O)c1ccc(F)cc1 (stereo not shown) [4-fluoromandelonitrile] | 11.8 mol product/mol catalyst/sec
9 | N#CC(O)c1ccccc1 (stereo not shown) [mandelonitrile] | 28 mol product/mol catalyst/sec

same assay, conditions: entries 8-9: pH 9 and 5 mM substrate concentration; otherwise standard conditions

Row | Compound | TOF (turnover frequency)
10 | N#CC(O)c1cccc2ccccc12 (stereo not shown) [1-naphthyl cyanohydrin] | 2.8 mol product/mol catalyst/sec
11 | N#CC(O)c1ccc2ccccc2c1 (stereo not shown) [2-naphthyl cyanohydrin] | 2.8 mol product/mol catalyst/sec

system: Nitrilase II, SEQ ID NOS:103, 104, obtained from an environmental sample; assay: High throughput nitrilase activity assay, turnover frequency on aryl acetaldehyde cyanohydrins; format: biochemical, Unknown (obtained from an environmental sample); details: conditions as in Table 13 (25 mM substrate, 10% MeOH, 37°C, pH 8), except 0.016 mg/mL nitrilase
Description: We next examined the preparation of aryllactic acid derivatives 6 through hydrolysis of the corresponding cyanohydrins 5. Phenyllactic acid and derivatives serve as versatile building blocks for the preparation of numerous biologically active compounds. (Coppola, G.M.; Schuster, H.F. Chiral α-Hydroxy Acids in Enantioselective Synthesis; Wiley-VCH: Weinheim, Germany: 1997.) Upon screening our nitrilase library against the parent cyanohydrin 5a (Ar= phenyl), we found several enzymes that provided 6a with high enantiomeric excess. One enzyme, SEQ ID NOS: 103, 104, was further characterized. […] The highest [drawing 20] enantioselectivity previously reported for biocatalytic conversion of 5 to 6 was 75% ee achieved through a whole cell transformation using a Pseudomonas strain. (Hashimoto, Y.; Kobayashi, E.; Endo, T.; Nishiyama, M.; Horinouchi, S. Biosci. Biotech. Biochem. 1996, 60, 1279.) Table 14. Nitrilase II-catalyzed production of aryllactic acid derivatives and analogues 6a
Assay solutions consisted of 0-10% (v/v) MeOH in 0.1 M sodium phosphate buffer solution at pH 7 to 9 and temperatures 37°C or 22°C. Specific activities were measured at 5 min transformation time point, unless otherwise noted, and are expressed in units µmol mg^-1 min^-1. Enantiomeric excess and conversion rates were determined by high throughput HPLC analysis comparing enzyme product concentration to standard curves of racemic acid products. Analytical conditions for the products are tabulated below.

Row | Compound | TOF (turnover frequency)
12 | 3-pyridyl acetaldehyde cyanohydrin | 7.2 mol product/mol catalyst/sec
13 | N#CC(O)Cc1cccc2ccccc12 (stereo not shown) [1-napthyl acetaldehyde cyanohydrin] | 40 mol product/mol catalyst/sec
14 | N#CC(O)Cc1ccccc1Br (stereo not shown) [2-bromophenyl acetaldehyde cyanohydrin] | 76 mol product/mol catalyst/sec
15 | N#CC(O)Cc1ccccc1F (stereo not shown) [2-fluorophenyl acetaldehyde cyanohydrin] | 97 mol product/mol catalyst/sec
16 | Cc1ccccc1CC(O)C#N (stereo not shown) [2-methylphenyl acetaldehyde cyanohydrin] | 100 mol product/mol catalyst/sec
17 | N#CC(O)Cc1ccccn1 (stereo not shown) [2-pyridyl acetaldehyde cyanohydrin] | 6.6 mol product/mol catalyst/sec
18 | N#CC(O)Cc1cccs1 (stereo not shown) [2-thienyl acetaldehyde cyanohydrin] | 2.1 mol product/mol catalyst/sec
19 | Cc1cccc(CC(O)C#N)c1 (stereo not shown) [3-methylphenyl acetaldehyde cyanohydrin] | 13 mol product/mol catalyst/sec
20 | N#CC(O)Cc1ccsc1 (stereo not shown) [3-thienyl acetaldehyde cyanohydrin] | 1.4 mol product/mol catalyst/sec
21 | N#CC(O)Cc1cccc(F)c1 (stereo not shown) [3-tluorophenyl acetaldehyde cyanohydrin] | 14 mol product/mol catalyst/sec
22 | N#CC(O)Cc1ccccc1 (stereo not shown) [phenyl acetaldehyde cyanohydrin] | 16 mol product/mol catalyst/sec

system: nitrilase SEQ ID NOS:385, 386, obtained from an environmental sample; assay: Effect of reaction components on nitrilase activity (2-chloromandelonitrile hydrolysis, non-chiral HPLC); format: biochemical, Unknown (obtained from an environmental sample); details: 5 mM additive; 25 mM 2-chloromandelonitrile, 0.1 M phosphate buffer pH 8, 37°C
Description: A vital part of an investigation into process optimization of an enzyme involves the determination of the effects of any compounds which could be present in the enzymatic reaction. For SEQ ID NOS:385, 386, these components were established as the starting material and equilibrium product of the cyanohydrin, 2-chlorobenzaldehyde; the product, 2-chloromandelic acid and the contaminant detected in the substrate, 2-chlorobenzoic acid. […] The presence of trace amounts of triethylamine was also found to be tolerable to the enzyme.
The effect of the various reaction components on the activity of SEQ ID NOS:385, 386 was assessed by addition of various levels of possible inhibitors to the enzyme reaction. […]
• (i) Activity: The effect of the process components on the activity of the enzymes was established by addition of the individual components, 2-chlorobenzaldehyde, 2-chlorobenzoic acid or 2-chloromandelic acid, to the enzymatic reaction. […] The samples were analysed by non-chiral HPLC. • (ii) Stability: The stability of the enzymes to process conditions was monitored by incubation of the enzymes in the presence of the reaction components, 2-chlorobenzaldehyde and 2-chloromandelic acid for predetermined time periods, prior to assay of the enzyme activity under standard conditions. […]

Row | Compound | activity lost upon addition to the reaction
23 | O=Cc1ccccc1Cl [2-chlorobenzaldehyde] | Approximately 70%
24 | O=C(O)c1ccccc1Cl [2-chlorobenzoic acid] | ~40%

system: nitrilase SEQ ID NOS:103, 104; assay: Effect of starting material and product on nitrilase activity (phenylacetaldehyde cyanohydrin hydrolysis); format: biochemical, Unknown (obtained from an environmental sample); details: up to levels of 5 mM
Description: The effect of the process components on the activity of the enzymes was established by addition of the individual components to the enzymatic reaction. These components included the starting materials for the nitrile synthesis, aldehyde, cyanide and ammonium, as well as triethylamine, which is added in catalytic amounts to the nitrile synthesis reaction. The concentrations of the reactants were selected with possible process conditions in mind and were adapted to the levels of reactants used in the enzyme assays. In some cases, the solubility of the aldehydes and products was relatively low; in these cases, the highest level of solubility was added to the reactions as the highest level and 10% of this level as the lower value.
The enzymatic reactions were carried out under standard conditions, with addition of one or more of the following components: benzaldehyde, phenylglycine, phenylacetaldehyde, phenyllactic acid, 2-chlorobenzaldehyde, 2-chloromandelic acid, 5-hydroxypentanal, (S)-2-amino-6-hydroxy hexanoic acid, 4-methylleucine, KCN, Triethylamine, NH4Cl. Control reactions were performed under standard conditions, with no additive. The samples were analyzed by non-chiral HPLC.
SEQ ID NOS: 103, 104 was identified as a highly enantioselective nitrilase for the production of (S)- phenyllactic acid. […] The scaled-up enzymatic reaction with an enantiomeric excess (ee) of 95%. […]

Row | Compound | effect on the enzyme activity
25 | O=CCc1ccccc1 [phenylacetaldehyde] | no effect

system: nitrilase expressing subclones SEQ ID NOS:101, 102, SEQ ID NOS:187, 188, SEQ ID NOS:29, 30; assay: Growth of nitrilase expressing subclones in the presence of HPA nitrile; format: cell-based; details: cells grown at pH 7
Description: In preparation for assay automation, nitrilase expressing cells were added into microtiter plate containing M9 0.2% glucose,0.25 mM IPTG media by florescence activated cell sorting (FACS). Three nitrilase expressing subclones, and the empty vector control were evaluated: SEQ ID NOS:101, 102, SEQ ID NOS:187, 188, SEQ ID NOS:29, 30 and the empty vector. […] Thus colony picking is currently being evaluated as an alternative method to add cells into microtiter plates. The evaporative loss from an uncovered 1536-well microtiter plate is approximately 30% per day in the robot incubator (incubator conditions: 37°C at 85% relative humidity (RH)). Incubation in the 95% RH incubator reduced evaporative loss to 1% per day.
The ability of the three subclones to grow in the presence of up to 3.5 mM of nitrile was established using HPA nitrile. Growth rates were only slightly retarded (less that 30%). […] Only S was evaluated as the enzymes are S-selective. The reaction plate was read at 10 minute intervals, with 40 minutes showing the best linearity.

Row | Compound | concentration above which cell growth is significantly inhibited
26 | CC(C)(CO)C(N)C#N (stereo not shown) [HPA, Hydroxypivaldehyde aminonitrile] | above 5 mM

same assay, conditions: cells grown at pH 8

Row | Compound | concentration above which growth was inhibited
27 | CC(C)(CO)C(N)C#N (stereo not shown) [HPA, Hydroxypivaldehyde aminonitrile] | above 0.1 mM

same assay, conditions: in the presence of up to 3.5 mM of nitrile

Row | Compound | growth rates retarded [%]
28 | CC(C)(CO)C(N)C#N (stereo not shown) [HPA, Hydroxypivaldehyde aminonitrile] | < 30
